Source: US20200339691A1, “PROTEINACEOUS MOLECULES AND USES THEREFOR” (priority 2018, published 2020)
Where a SMILES comes first, the peptide text is derived from it. [ ]: non-standard residue; d: D form. The star is where a group is joined. Myristoyl = CCCCCCCCCCCCCC(=O)*; Orn = NCCC[C@H](N)C(=O)O

Assays:
[1] = test system: CD44^hiCD24^lo CSCs in MDA-MB-231 cells; assay: FACS analysis of CD44^hiCD24^lo cancer stem cells in MDA-MB-231 cells treated with P1 analogues; assay type: cell-based, human; conditions: 50 μM peptide, 48 hours; for CD44^hiCD24^lo CSCs (%) / COI, Live Single CD44^hiCD24^lo CSCs (Cell Count): n = 1; for Average Inhibition of CSCs (%) / CD44^hiCD24^lo CSCs (%) Repeat 1 / CD44^hiCD24^lo CSCs (%) Repeat 2 / CD44^hiCD24^lo CSCs (%) Repeat 3: n = 3
Procedure: Analogues of P1 (Table 6) were designed and synthesized in accordance with the procedure of Example 5. The ability of these analogues to inhibit cancer stem cells was determined using FACS analysis on MDA-MB-231 cells, which constitutively contain approximately 90% CD44^hiCD24^lo cancer stem cells, treated with the peptides.
(§1) Non-adherent cells were removed during the washing steps.

MDA-MB-231 cells = assay type: cell-based, human; conditions: 50 μM peptide, 48 hours, n = 1
Excerpt: as §1
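Wherever COI, Live Single Cells (Cell Count) is given: live means Hoechst-negative events among single cells.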

| SMILES | Inhibition of CSCs (%) Repeat 1 [1] | Inhibition of CSCs (%) Repeat 2 [1] | Inhibition of CSCs (%) Repeat 3 [1] | CD44^hiCD24^lo CSCs (%) [1] | COI, Live Single CD44^hiCD24^lo CSCs (Cell Count) [1] | Average Inhibition of CSCs (%) [1] | CD44^hiCD24^lo CSCs (%) Repeat 1 [1] | CD44^hiCD24^lo CSCs (%) Repeat 2 [1] | CD44^hiCD24^lo CSCs (%) Repeat 3 [1] | COI (Cell Count) (MDA-MB-231 cells) | COI, Live Single Cells (Cell Count) (MDA-MB-231 cells) | COI, Single (Cell Count) (MDA-MB-231 cells) | Total Cell Count (MDA-MB-231 cells) |
| --- | --- | --- | --- | --- | --- | --- | --- | --- | --- | --- | --- | --- | --- |
| CCCCCCCCCCCCCC(=O)N[C@@H](CC(C)C)C(=O)N[C@H](C(=O)N[C@@H](Cc1ccccc1)C(=O)N[C@H](C(=O)N[C@@H](Cc1ccccc1)C(=O)N[C@@H](CCCNC(=N)N)C(=O)N[C@@H](CC(C)C)C(=O)N[C@@H](CCC(=O)O)C(=O)N[C@@H](CCCCN)C(=O)NCC(=O)N[C@@H](CCCNC(=N)N)C(=O)N[C@@H](CCSC)C(=O)N[C@@H](CCSC)C(=O)N[C@@H](CC(=O)O)C(=O)N[C@H](C(=O)N[C@@H](CCCCN)C(=O)N[C@@H](CCCCN)C(N)=O)C(C)C)[C@@H](C)CC)[C@@H](C)O [Peptide 2853823, Myristoyl-LTFIFRLEKGRMMDVKK-NH2] (Myristoyl-LTFIFRLEKGRMMDVKK-NH2) | 80.72% | 81.08% | 82.74% | 3.62% | 22 | 81.52% | 17.28% | 16.97% | 15.49% | 672 | 608 | 626 | 1209 |
| CCCCCCCCCCCCCC(=O)N[C@@H](CC(C)C)C(=O)N[C@H](C(=O)N[C@@H](Cc1ccccc1)C(=O)N[C@H](C(=O)N[C@@H](Cc1ccccc1)C(=O)N[C@@H](CCCNC(=N)N)C(=O)N[C@@H](CC(C)C)C(=O)N[C@@H](CCCCN)C(=O)N[C@@H](CCCCN)C(=O)NCC(=O)N[C@@H](CCCNC(=N)N)C(=O)N[C@@H](CCSC)C(=O)N[C@@H](CCSC)C(=O)N[C@@H](CC(=O)O)C(=O)N[C@H](C(=O)N[C@@H](CCCCN)C(=O)N[C@@H](CCCCN)C(N)=O)C(C)C)[C@@H](C)CC)[C@@H](C)O [Peptide 2853824, Myristoyl-LTFIFRLKKGRMMDVKK-NH2] (Myristoyl-LTFIFRLKKGRMMDVKK-NH2) | 77.86% | 79.50% | 76.91% | 16.54% | 619 | 78.09% | 19.85% | 18.39% | 20.72% | 4232 | 3743 | 3768 | 5455 |
| CCCCCCCCCCCCCC(=O)N[C@@H](CC(C)C)C(=O)N[C@H](C(=O)N[C@@H](Cc1ccccc1)C(=O)N[C@H](C(=O)N[C@@H](Cc1ccccc1)C(=O)N[C@@H](CCCNC(=N)N)C(=O)N[C@@H](CC(C)C)C(=O)N[C@@H](CCCNC(=N)N)C(=O)N[C@@H](CCCNC(C)=O)C(=O)NCC(=O)N[C@@H](CCCNC(=N)N)C(=O)N[C@@H](CCSC)C(=O)N[C@@H](CCSC)C(=O)N[C@@H](CC(=O)O)C(=O)N[C@H](C(=O)N[C@@H](CCCCN)C(=O)N[C@@H](CCCCN)C(N)=O)C(C)C)[C@@H](C)CC)[C@@H](C)O [Peptide 2853826, Myristoyl-LTFIFRLROrn(Ac)GRMMDVKK-NH2] (Myristoyl-LTFIFRLR[Orn](Ac)GRMMDVKK-NH2) | 86.74% | 80.33% | 87.62% | 3.13% | 5 | 84.90% | 11.88% | 17.65% | 11.11% | 554 | 160 | 433 | 3961 |
| CCCCCCCCCCCCCC(=O)N[C@@H](CC(C)C)C(=O)N[C@H](C(=O)N[C@@H](Cc1ccccc1)C(=O)N[C@H](C(=O)N[C@@H](Cc1ccccc1)C(=O)N[C@@H](CCCNC(=N)N)C(=O)N[C@@H](CC(C)C)C(=O)N[C@@H](CCCNC(=N)N)C(=O)N[C@@H](CCCCN)C(=O)N[C@@H](CC(=O)O)C(=O)N[C@@H](CCCNC(=N)N)C(=O)N[C@@H](CCSC)C(=O)N[C@@H](CCSC)C(=O)N[C@@H](CC(=O)O)C(=O)N[C@H](C(=O)N[C@@H](CCCCN)C(=O)N[C@@H](CCCCN)C(N)=O)C(C)C)[C@@H](C)CC)[C@@H](C)O [Peptide 2853827, Myristoyl-LTFIFRLRKDRMMDVKK-NH2] (Myristoyl-LTFIFRLRKDRMMDVKK-NH2) | 95.44% | 91.08% | 89.47% | 1.64% | 1 | 92.00% | 4.09% | 8.00% | 9.45% | 170 | 61 | 110 | 4681 |
| CCCCCCCCCCCCCC(=O)N[C@@H](CC(C)C)C(=O)N[C@H](C(=O)N[C@@H](Cc1ccccc1)C(=O)N[C@H](C(=O)N[C@@H](Cc1ccccc1)C(=O)N[C@@H](CCCNC(=N)N)C(=O)N[C@@H](CC(C)C)C(=O)N[C@@H](CCCNC(=N)N)C(=O)N[C@@H](CCCCN)C(=O)N[C@@H](CCCCN)C(=O)N[C@@H](CCCNC(=N)N)C(=O)N[C@@H](CCSC)C(=O)N[C@@H](CCSC)C(=O)N[C@@H](CC(=O)O)C(=O)N[C@H](C(=O)N[C@@H](CCCCN)C(=O)N[C@@H](CCCCN)C(N)=O)C(C)C)[C@@H](C)CC)[C@@H](C)O [Peptide 2853828, Myristoyl-LTFIFRLRKKRMMDVKK-NH2] (Myristoyl-LTFIFRLRKKRMMDVKK-NH2) | 89.25% | 91.29% | 90.17% | 10.71% | 3 | 90.23% | 9.64% | 7.81% | 8.82% | 182 | 28 | 146 | 3309 |
| CCCCCCCCCCCCCC(=O)N[C@@H](CC(C)C)C(=O)N[C@H](C(=O)N[C@@H](Cc1ccccc1)C(=O)N[C@H](C(=O)N[C@@H](Cc1ccccc1)C(=O)N[C@@H](CCCNC(=N)N)C(=O)N[C@@H](CC(C)C)C(=O)N[C@@H](CCCNC(=N)N)C(=O)N[C@@H](CCCCN)C(=O)N[C@H](C(=O)N[C@@H](CCCNC(=N)N)C(=O)N[C@@H](CCSC)C(=O)N[C@@H](CCSC)C(=O)N[C@@H](CC(=O)O)C(=O)N[C@H](C(=O)N[C@@H](CCCCN)C(=O)N[C@@H](CCCCN)C(N)=O)C(C)C)C(C)C)[C@@H](C)CC)[C@@H](C)O [Peptide 2853829, Myristoyl-LTFIFRLRKVRMMDVKK-NH2] (Myristoyl-LTFIFRLRKVRMMDVKK-NH2) | 89.50% | 91.73% | 94.67% | 5.88% | 4 | 91.97% | 9.41% | 7.42% | 4.79% | 167 | 68 | 131 | 10000 |
| CCCCCCCCCCCCCC(=O)N[C@@H](CC(C)C)C(=O)N[C@H](C(=O)N[C@@H](Cc1ccccc1)C(=O)N[C@H](C(=O)N[C@@H](Cc1ccccc1)C(=O)N[C@@H](CCCNC(=N)N)C(=O)N[C@@H](CC(C)C)C(=O)N[C@@H](CCCNC(=N)N)C(=O)N[C@@H](CCCCN)C(=O)NCC(=O)N[C@@H](CCC(=O)O)C(=O)N[C@@H](CCSC)C(=O)N[C@@H](CCSC)C(=O)N[C@@H](CC(=O)O)C(=O)N[C@H](C(=O)N[C@@H](CCCCN)C(=O)N[C@@H](CCCCN)C(N)=O)C(C)C)[C@@H](C)CC)[C@@H](C)O [Peptide 2853830, Myristoyl-LTFIFRLRKGEMMDVKK-NH2] (Myristoyl-LTFIFRLRKGEMMDVKK-NH2) | 45.65% | 53.16% | 55.12% | 29.21% | 1312 | 51.31% | 48.71% | 42.02% | 40.27% | 5072 | 4491 | 4600 | 8489 |
| CCCCCCCCCCCCCC(=O)N[C@@H](CC(C)C)C(=O)N[C@H](C(=O)N[C@@H](Cc1ccccc1)C(=O)N[C@H](C(=O)N[C@@H](Cc1ccccc1)C(=O)N[C@@H](CCCNC(=N)N)C(=O)N[C@@H](CC(C)C)C(=O)N[C@@H](CCCNC(=N)N)C(=O)N[C@@H](CCCCN)C(=O)NCC(=O)N[C@H](C(=O)N[C@@H](CCSC)C(=O)N[C@@H](CCSC)C(=O)N[C@@H](CC(=O)O)C(=O)N[C@H](C(=O)N[C@@H](CCCCN)C(=O)N[C@@H](CCCCN)C(N)=O)C(C)C)C(C)C)[C@@H](C)CC)[C@@H](C)O [Peptide 2853831, Myristoyl-LTFIFRLRKGVMMDVKK-NH2] (Myristoyl-LTFIFRLRKGVMMDVKK-NH2) | 79.77% | 84.29% | 89.06% | 11.83% | 11 | 84.37% | 18.13% | 14.09% | 9.82% | 377 | 93 | 280 | 10000 |
